Data reported in US8753820B2, “Protein biomarkers for soft tissue disease diagnosis and as therapeutic targets for oral care intervention” (Colgate-Palmolive Company, priority 2009, dated 2014).

Legend:
[1] = test system: MMP-9 production of U937 cells; assay: MMP-9 ELISA of conditioned media from TNFα-stimulated U937 monocyte cells; assay type: cell-based, Human; conditions: for MMP-9 production, Average: U937 cells, 24 hours, ELISA of conditioned media
Method: U937 cells and RPMI 1640 culture medium were obtained from ATCC. Human MMP-9 ELISA Kit (QUANTIKINE) was obtained from R&D Systems. Fetal Bovine Serum (FBS) was obtained from VWR, and the penicillin-streptomycin solution and Tumor Necrosis Factor α (TNFα) were obtained from Sigma.
Human leukemia U937 monocyte lymphoma cells were cultured in RPMI 1640 medium supplemented with 10% FBS and 1% Penicillin-Streptomycin solution. Cells were incubated at 37° C. in a humidified atmosphere containing 5% CO2 and 95% air. Before treatment, cells were transferred into RPMI containing 1% FBS for overnight. Cells were plated on a 48 well plate. Cell culture medium included either TNFα (250 ng/mL), Triclosan (1 ppm), or both agents together or no agent (control). Cells were incubated after treatment for 24 hours. Conditioned media were collected and store at −80° C. until analysis. Samples of conditioned media were subjected to enzyme-linked immunosorbent assays (ELISA) for MMP-9, according to commercial ELISA protocol (FIG. 1).

[2] = test system: MMP-13 expression in UMR 106-01 cells; assay: MMP-13 expression by real time quantitative RT-PCR in PTH stimulated UMR 106-01 cells; assay type: cell-based, Rat; conditions: 4 hours; for MMP-13 expression in PTH stimulated UMR cells: PTH 10^-8 M
Method: Parathyroid hormone (rat PTH 1-34) was purchased from Sigma. UMR 106-01 cells were cultured in Eagle's minimal essential medium (EMEM) supplemented with 25 mM Hepes pH 7.4, 1% nonessential amino acids, 100 units/ml penicillin, 100 μg/ml streptomycin. 5% fetal bovine serum. Real Time Quantitative RT-PCR was conducted according to the following method: UMR 106-01 cells were seeded in 12-well plates and cultured for 2-3 days in cell culture media. When cells were confluent, cell culture media was exchanged with 1% fetal bovine serum for overnight for cell starvation. Cells were pre-incubated with dentifrice for 15 min and then incubated with PTH (10^−8 M) for 4 hours.
Total RNA was isolated from UMR 106-01 cells stimulated with or without PTH with TRIzol reagent. Total RNA (0.1 μg) was reverse-transcribed to cDNA using the Invitrogen SUPERSCRIPT kit according to the manufacturer's instructions. All cDNAs were amplified by adding 2.5 μl of cDNA to the PCR mixture (22.5 μl) containing each primer (0.2 μM) and 12.5 μl of the Platinum SYBR Green qPCR SuperMix UDG (Invitrogen). The reactions were preincubated at 50° C. for 2 minutes to decontaminate dU-containing DNA by UDG, then at 95° C. for 2 minutes to inactivate UDG and activate Taq. The PCR program continued 49 cycles of denaturation at 95° C. for 15 seconds, annealing and elongation of the primers at 60° C. for 30 seconds. Relative quantification of gene expression was determined by using the 2-delta delta CT method where fold changes in gene expression are relative to control samples. All samples were normalized to β-actin.
All results were expressed as means±standard error (S.E.) of triplicate measurements with all experiments being repeated at least three times. Statistical analyses were carried out using the Student's t test.

[3] = PEG 600 present in a weight ratio of 25 triclosan:1 PEG 600, versus absence of polyethylene glycol; cited from earlier work

Compound: TNFα
- MMP-9 production, Average ([1]; TNFα 250 ng/mL alone): 0.275 ng/mL
- MMP-9 level in U937 cells ([1]; stimulated with TNFα): increase

Compound: PTH: Parathyroid hormone (rat PTH 1-34) purchased from Sigma, used to stimulate MMP-13 expression (AVSEIQLMHNLGKHLASVERMQWLRKKLQDVHNF; Parathyroid hormone; UniProt P04089 32-65, looked up, fragment)
- MMP-13 expression in UMR cells ([2]; stimulated with PTH 10^-8 M): increase

Compound: Oc1cc(Cl)ccc1Oc1ccc(Cl)cc1Cl [Triclosan, 2,4,4′-trichloro-2′-hydroxydiphenyl ether]
- MMP-13 expression in PTH stimulated UMR cells ([2]; 1 ppm): significantly reduced
- MMP-13 expression in PTH stimulated UMR cells ([2]; 4 ppm): significantly reduced
- MMP-13 expression in PTH stimulated UMR cells ([2]; 10 ppm): significantly reduced
- MMP-9 level in TNFα stimulated U937 cells ([1]; Triclosan at 1 ppm): significantly reduced
- MMP-9 production, Average ([1]; TNFα 250 ng/mL + Triclosan 1 ppm): 0.155 ng/mL
- factor by which antibacterial activity of triclosan is reduced [3]: 10-20
